Source: patent US20050154536A1, “Two-part drug discovery system” (The University of Pittsburgh - of the Commonwealth System …, priority 2001, published 2005)

Columns and labels:
RAW 264.7 cells = assay: Steady-state expression of TNF and iNOS transcripts in RAW 264.7 cells; assay type: cell-based, murine; details: RAW 264.7 cells incubated with LPS
[1] = test system: LPS-stimulated RAW 264.7 murine macrophage-like cells; details: LPS-stimulated RAW 264.7 cells; concentration-dependent
C57B1/6 mice = assay: Endotoxemia protocol in C57B1/6 mice (LPS alone); assay type: in vivo
Protocol: Mice: All animal experiments were approved by the Institutional Animal Care and Use Committee of the University of Pittsburgh. All studies were carried out in C57B1/6 mice (6-10 wk old mice; Charles River Laboratories, Charles River, Me.).
Endotoxemia, in which LPS is directly introduced into an animal, is a highly reproducible means for inducing acute systemic inflammation. […] Circulating levels of TNF and IL-10 increase rapidly and decay quickly, whereas IL-6 levels peak at approximately 2-3 h and decay more slowly. The levels of NO, measured as the stable reaction product NO2^−NO3^−, remain elevated for 24 h. Levels of TNF and NO2^−/NO3^− seem to be saturated at 3 mg/kg whereas IL-6 and IL-10 saturate at 6mg/kg (FIG. 8): at 12 mg/kg (FIG. 9), the levels of most analytes are not much higher as compared to those of animals treated with 6 mg/kg LPS.

Row | Compound | steady-state expression of TNF transcripts (RAW 264.7 cells) | steady-state expression of iNOS transcripts (RAW 264.7 cells) | concentration of NO2−/NO3− in supernatants [1] | concentration of TNF-α in supernatants [1] | survival until final time point (C57B1/6 mice; LPS 3, 6 or 12 mg/kg intraperitoneally, 24 h following injection) | time of IL-6 peak level in circulation (C57B1/6 mice; LPS 3 or 6 mg/kg intraperitoneally) [h]
1 | NC(=O)C1=CN([C@@H]2O[C@H](COP(=O)(O)OP(=O)(O)OC[C@H]3O[C@@H](n4cnc5c(N)ncnc54)[C@H](O)[C@@H]3O)[C@@H](O)[C@H]2O)C=CC1 [NAD+, Reduced nicotinamide adenine dinucleotide] | decreased | decreased | decreased | decreased |  | 
2 | lipopolysaccharide [LPS] | markedly increased | markedly increased |  |  | All of the mice survived | 2 to 3
